From ChEMBL document CHEMBL1145498, “A systematic interaction map of validated kinase inhibitors with Ser/Thr kinases” (Proc Natl Acad Sci U S A, 2007)

Assays:
[1] = biological target: Serine/threonine-protein kinase Nek6 (Homo sapiens) (UniProt Q9HC98)
[2] = biological target: T1, Dual specificity mitogen-activated protein kinase kinase 6 (Homo sapiens) (UniProt P52564)
T1 sequence (whole entry): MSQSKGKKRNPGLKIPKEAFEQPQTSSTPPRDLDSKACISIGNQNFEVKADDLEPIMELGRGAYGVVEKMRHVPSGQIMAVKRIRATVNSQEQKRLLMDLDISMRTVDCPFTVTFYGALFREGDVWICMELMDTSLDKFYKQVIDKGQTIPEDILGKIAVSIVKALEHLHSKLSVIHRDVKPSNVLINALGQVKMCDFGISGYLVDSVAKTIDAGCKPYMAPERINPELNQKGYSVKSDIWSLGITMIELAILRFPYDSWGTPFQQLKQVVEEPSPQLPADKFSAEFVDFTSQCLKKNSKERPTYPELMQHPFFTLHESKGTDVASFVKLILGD

[3] = biological target: Glycogen synthase kinase-3 beta (Homo sapiens, UniProt P49841)
[4] = biological target: STE20-like serine/threonine-protein kinase (Homo sapiens) (UniProt Q9H2G2)
[5] = biological target: Dual specificity protein kinase CLK2 (Homo sapiens) (UniProt P49760)
[6] = biological target: Casein kinase I isoform gamma-3 (Homo sapiens) (UniProt Q9Y6M4)
[7] = biological target: T2, Serine/threonine-protein kinase 4 (Homo sapiens) (UniProt Q13043)
T2 sequence (whole entry): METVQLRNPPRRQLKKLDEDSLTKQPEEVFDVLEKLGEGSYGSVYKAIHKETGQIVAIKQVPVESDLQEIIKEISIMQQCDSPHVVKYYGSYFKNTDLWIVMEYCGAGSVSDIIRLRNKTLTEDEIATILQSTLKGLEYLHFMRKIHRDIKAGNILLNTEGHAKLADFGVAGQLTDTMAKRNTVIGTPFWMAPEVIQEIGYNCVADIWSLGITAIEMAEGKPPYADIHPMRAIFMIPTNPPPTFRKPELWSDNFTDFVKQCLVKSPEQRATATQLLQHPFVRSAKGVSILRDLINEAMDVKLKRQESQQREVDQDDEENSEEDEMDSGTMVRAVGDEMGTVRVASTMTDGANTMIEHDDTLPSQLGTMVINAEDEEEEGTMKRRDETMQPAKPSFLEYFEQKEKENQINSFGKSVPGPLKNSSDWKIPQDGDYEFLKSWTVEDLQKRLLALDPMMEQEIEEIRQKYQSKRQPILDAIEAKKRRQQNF

[8] = biological target: Cyclin-dependent kinase-like 1 (Homo sapiens) (UniProt Q00532)
[9] = biological target: Dual specificity mitogen-activated protein kinase kinase 2 (Homo sapiens, UniProt P36507)
[10] = biological target: Calcium/calmodulin-dependent protein kinase kinase 2 (Homo sapiens, UniProt Q96RR4)
Sequence of Calcium/calmodulin-dependent protein kinase kinase 2 (Q96RR4 2-588 limits assumed): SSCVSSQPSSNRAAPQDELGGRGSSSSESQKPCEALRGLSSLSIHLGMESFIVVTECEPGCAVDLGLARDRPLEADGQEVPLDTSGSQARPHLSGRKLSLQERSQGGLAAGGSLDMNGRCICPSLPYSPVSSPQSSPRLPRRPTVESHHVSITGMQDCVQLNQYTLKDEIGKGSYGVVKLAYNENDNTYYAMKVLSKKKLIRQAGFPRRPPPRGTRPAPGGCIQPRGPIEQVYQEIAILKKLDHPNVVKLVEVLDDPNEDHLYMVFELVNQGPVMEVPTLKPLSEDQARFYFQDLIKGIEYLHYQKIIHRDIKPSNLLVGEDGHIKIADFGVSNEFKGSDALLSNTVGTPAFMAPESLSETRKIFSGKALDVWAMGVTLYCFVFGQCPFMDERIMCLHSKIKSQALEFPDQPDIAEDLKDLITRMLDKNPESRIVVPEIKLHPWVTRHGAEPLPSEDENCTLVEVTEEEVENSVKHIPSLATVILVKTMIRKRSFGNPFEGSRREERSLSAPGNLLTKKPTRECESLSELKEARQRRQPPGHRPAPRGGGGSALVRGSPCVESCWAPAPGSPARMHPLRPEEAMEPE

Sequence of STE20-like serine/threonine-protein kinase (Homo sapiens) (Q9H2G2 whole entry, looked up): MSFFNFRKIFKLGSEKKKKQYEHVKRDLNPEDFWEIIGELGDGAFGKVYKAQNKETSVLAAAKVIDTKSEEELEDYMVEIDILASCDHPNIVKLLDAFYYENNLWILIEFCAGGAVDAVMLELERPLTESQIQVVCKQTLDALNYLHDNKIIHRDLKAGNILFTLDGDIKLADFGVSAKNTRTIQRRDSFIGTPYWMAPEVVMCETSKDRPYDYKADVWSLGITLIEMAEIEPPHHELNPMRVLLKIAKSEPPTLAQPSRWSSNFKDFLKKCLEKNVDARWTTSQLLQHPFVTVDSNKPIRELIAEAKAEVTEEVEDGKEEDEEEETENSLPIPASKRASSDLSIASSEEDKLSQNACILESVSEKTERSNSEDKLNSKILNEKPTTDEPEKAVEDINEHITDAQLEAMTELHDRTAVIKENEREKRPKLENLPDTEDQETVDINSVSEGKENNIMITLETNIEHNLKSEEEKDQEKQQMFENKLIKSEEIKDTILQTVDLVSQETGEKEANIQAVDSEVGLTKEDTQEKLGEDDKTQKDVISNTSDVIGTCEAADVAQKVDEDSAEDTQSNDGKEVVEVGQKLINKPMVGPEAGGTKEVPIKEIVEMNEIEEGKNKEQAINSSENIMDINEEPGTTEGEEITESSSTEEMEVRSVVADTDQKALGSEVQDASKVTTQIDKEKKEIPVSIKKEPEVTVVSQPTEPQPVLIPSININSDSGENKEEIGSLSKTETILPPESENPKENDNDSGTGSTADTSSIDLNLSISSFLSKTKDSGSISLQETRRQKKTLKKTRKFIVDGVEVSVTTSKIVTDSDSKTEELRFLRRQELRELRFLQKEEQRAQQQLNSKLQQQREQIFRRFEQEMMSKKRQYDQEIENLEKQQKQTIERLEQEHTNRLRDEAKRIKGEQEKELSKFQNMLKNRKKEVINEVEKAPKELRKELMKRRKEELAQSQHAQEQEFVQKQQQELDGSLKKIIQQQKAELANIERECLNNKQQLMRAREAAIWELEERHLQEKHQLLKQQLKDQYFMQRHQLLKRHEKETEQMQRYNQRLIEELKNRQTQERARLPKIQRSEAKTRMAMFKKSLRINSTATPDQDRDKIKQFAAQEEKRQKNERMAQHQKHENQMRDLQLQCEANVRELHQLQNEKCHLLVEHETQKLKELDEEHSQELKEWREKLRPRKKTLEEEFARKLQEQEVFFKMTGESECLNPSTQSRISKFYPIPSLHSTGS
Sequence of Dual specificity protein kinase CLK2 (Homo sapiens) (P49760 whole entry, looked up, canonical isoform): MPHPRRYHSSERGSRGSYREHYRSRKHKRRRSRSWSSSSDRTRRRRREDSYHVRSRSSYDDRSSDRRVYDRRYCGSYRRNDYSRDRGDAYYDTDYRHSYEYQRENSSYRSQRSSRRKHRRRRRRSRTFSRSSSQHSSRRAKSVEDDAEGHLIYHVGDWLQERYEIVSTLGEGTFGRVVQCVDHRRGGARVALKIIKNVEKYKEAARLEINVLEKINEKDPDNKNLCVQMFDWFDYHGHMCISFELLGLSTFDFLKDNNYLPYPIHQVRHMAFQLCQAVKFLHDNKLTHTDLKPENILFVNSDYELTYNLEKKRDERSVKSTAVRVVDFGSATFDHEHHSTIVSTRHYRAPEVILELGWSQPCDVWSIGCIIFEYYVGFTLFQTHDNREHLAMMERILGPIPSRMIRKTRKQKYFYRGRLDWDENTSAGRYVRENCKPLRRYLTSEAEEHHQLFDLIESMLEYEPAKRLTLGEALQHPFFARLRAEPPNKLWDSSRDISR
Sequence of Casein kinase I isoform gamma-3 (Homo sapiens) (Q9Y6M4 whole entry, looked up, canonical isoform): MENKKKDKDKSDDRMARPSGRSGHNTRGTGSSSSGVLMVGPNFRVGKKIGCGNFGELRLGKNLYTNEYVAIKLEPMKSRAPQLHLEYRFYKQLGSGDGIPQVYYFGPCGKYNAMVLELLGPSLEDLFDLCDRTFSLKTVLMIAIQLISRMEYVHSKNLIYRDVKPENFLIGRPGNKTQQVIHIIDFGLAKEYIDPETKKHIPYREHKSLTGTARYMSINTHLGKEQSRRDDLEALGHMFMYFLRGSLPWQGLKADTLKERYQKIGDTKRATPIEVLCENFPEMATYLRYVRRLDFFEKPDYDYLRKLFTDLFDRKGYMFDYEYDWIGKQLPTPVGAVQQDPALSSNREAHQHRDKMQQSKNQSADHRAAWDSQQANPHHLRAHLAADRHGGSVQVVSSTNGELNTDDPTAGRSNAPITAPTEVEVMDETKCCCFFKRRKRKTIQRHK
Sequence of Cyclin-dependent kinase-like 1 (Homo sapiens) (Q00532 whole entry): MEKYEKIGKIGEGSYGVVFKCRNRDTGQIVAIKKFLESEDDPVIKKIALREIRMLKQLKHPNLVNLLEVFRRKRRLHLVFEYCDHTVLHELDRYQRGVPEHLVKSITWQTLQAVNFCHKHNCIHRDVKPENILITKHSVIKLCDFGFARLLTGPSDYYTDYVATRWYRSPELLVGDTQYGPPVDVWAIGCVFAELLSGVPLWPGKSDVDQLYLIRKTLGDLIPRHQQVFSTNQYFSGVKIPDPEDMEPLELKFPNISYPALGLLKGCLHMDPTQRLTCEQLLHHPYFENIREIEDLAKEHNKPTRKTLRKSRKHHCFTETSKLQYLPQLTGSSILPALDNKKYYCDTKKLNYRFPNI
Sequence of Dual specificity mitogen-activated protein kinase kinase 2 (P36507 whole entry): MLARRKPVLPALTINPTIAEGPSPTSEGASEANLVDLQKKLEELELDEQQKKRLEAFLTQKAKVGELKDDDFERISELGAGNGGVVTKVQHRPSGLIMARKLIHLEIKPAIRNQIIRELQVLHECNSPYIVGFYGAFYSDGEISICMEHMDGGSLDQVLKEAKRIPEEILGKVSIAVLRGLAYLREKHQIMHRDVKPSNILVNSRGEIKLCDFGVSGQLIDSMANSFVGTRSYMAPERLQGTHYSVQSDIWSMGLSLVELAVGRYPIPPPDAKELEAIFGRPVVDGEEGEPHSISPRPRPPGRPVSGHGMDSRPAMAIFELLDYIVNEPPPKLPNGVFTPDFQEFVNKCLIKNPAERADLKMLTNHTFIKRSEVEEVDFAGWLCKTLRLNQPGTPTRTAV
Sequence of Glycogen synthase kinase-3 beta (P49841 whole entry, looked up): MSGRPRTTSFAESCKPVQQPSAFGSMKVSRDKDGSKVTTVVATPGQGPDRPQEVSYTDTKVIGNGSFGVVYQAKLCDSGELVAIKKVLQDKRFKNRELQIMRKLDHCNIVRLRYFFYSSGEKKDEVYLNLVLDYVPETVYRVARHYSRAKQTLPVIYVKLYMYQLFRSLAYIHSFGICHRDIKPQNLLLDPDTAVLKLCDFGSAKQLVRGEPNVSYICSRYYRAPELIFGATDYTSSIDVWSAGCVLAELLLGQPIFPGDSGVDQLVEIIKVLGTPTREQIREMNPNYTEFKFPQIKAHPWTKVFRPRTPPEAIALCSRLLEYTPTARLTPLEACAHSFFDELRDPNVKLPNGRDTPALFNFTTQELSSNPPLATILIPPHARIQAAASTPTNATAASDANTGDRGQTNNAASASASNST
Sequence of Serine/threonine-protein kinase Nek6 (Homo sapiens) (Q9HC98 whole entry): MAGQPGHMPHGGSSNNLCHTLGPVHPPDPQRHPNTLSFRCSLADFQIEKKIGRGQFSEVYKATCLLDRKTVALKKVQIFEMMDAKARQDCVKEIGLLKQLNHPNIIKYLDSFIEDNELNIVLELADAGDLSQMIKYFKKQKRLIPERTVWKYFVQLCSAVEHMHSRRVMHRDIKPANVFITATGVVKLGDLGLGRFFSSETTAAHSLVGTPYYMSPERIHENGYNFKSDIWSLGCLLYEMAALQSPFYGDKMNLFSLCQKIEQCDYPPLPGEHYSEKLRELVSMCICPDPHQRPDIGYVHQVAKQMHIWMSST

Structure (SMILES)	ΔTm [1]	ΔTm [2]	ΔTm [3]	ΔTm [4]	ΔTm [5]	ΔTm [6]	ΔTm [7]	ΔTm [8]	ΔTm [9]	ΔTm [10]
O=C1Nc2ccccc2/C1=C/c1cnc[nH]1	0 °C	4.7 °C	7.1 °C	3.3 °C	2.5 °C	1.5 °C	8.4 °C	3.7 °C	2 °C	3.1 °C
COc1cccc(-c2cc(=O)c3ccccc3o2)c1N	-0.1 °C	-0.1 °C	0.1 °C	-0.1 °C	0 °C	0.1 °C	-0.1 °C	0 °C	0.1 °C	-0.4 °C
CC(C)n1cnc2/c(=N/c3cccc(Cl)c3)nc(NCCO)[nH]c21	0.1 °C	0.3 °C	0.8 °C	1.6 °C	4.5 °C	7 °C	3.4 °C	-0.1 °C	0.2 °C	2.3 °C
Nc1cccc(-c2cc3c(Oc4cccc(O)c4)ncnc3[nH]2)c1	-1.3 °C	2.7 °C	7.6 °C	6.7 °C	0.4 °C	1 °C	5.1 °C	0.6 °C	2.7 °C	1.4 °C
O=C1c2ccccc2-[n+]2ccc3c([nH]c4ccccc43)c21 [FASCAPLYSIN CHLORIDE]	-0.1 °C	-0.8 °C	0.1 °C	-0.9 °C	-0.4 °C	-0.8 °C	-1.6 °C	-0.5 °C	-0.8 °C	-2.1 °C
CSc1nc(-c2ccc(F)cc2)c(-c2ccnc(NC(C)c3ccccc3)c2)[nH]1 (racemic)	0.5 °C	0.5 °C	0 °C	0.8 °C	0.1 °C	3.4 °C	1.3 °C	0.8 °C	0.1 °C	0.7 °C
COc1cc2c(cc1OC)-c1n[nH]c(Nc3cccc(F)c3)c1C2	0.1 °C	0.3 °C	2.9 °C	2.1 °C	1.1 °C	0.8 °C	0.7 °C	-0.1 °C	0.7 °C	1.6 °C
CCOc1cc2ncnc(Nc3cccc(Br)c3)c2cc1OCC	0.7 °C	0.3 °C	2.8 °C	7.9 °C	1 °C	-0.2 °C	2.2 °C	0 °C	0.8 °C	2.7 °C
Cc1ccc(NC2=CC(=O)c3sc(C)nc3C2=O)cc1	-0.6 °C	-0.2 °C	0.4 °C	-0.6 °C	-1 °C	-4.3 °C	-1.3 °C	-1.3 °C	-2 °C	-2.4 °C
COc1cc(C[C@H]2C(=O)OC[C@@H]2Cc2ccc(OC)c(OC)c2)ccc1O [ARCTIGENIN]	-0.7 °C	0.3 °C	-0.2 °C	-0.5 °C	-0.1 °C	0.2 °C	0.8 °C	-0.1 °C	0 °C	-0.9 °C
CCOc1ccc(/C=C2/SC(=O)N(CCN)C2=O)cc1 [HIAZOLIDINEDIONE1]	-1.7 °C	0.1 °C	-1.3 °C	-0.4 °C	0.2 °C	-0.1 °C	0.4 °C	0.3 °C	0.4 °C	-0.4 °C
